Measurements reported in patent publication EP4813990A1, “COMPOUND FOR TREATING CANCER” (INNOLAKE BIOPHARMA (HANGZHOU) CO., LTD., priority 2023, dated 2025).
Like-named read-outs stand apart in the source and are kept apart here.

Key:
[1] = Single-dose toxicity study in rats; details: Sprague-Dawley, rat, in vivo, po; SD rats, single intragastric administration, observed for 14 days; read-out: maximum tolerated dose (MTD)
Description: (§1) In accordance with the relevant requirements of the Good Laboratory Practice for Non-clinical Drug Studies issued by the National Medical Products Administration of the People's Republic of China, and following the test protocol and revisions, the safety pharmacology test, single-dose toxicity, genetic toxicity, etc. of ILB-2109 were explored.
SD rats were given single intragastric administration of ILB-2109 and observed for 14 days. The single doses were 0 (vehicle), 500, 1000 and 2000 mg/kg ILB-2109. […] No abnormalities were found in body weight, food consumption, clinical examination and gross anatomy. Under the test conditions, the maximum tolerated dose (MTD) of ILB-2109 in rats was 2000 mg/kg.

[2] = Excretion of total radioactivity in bile duct cannulated (BDC) rats; format: in vivo
CYP1A2 = target: T1, CYP1A2 (Homo sapiens, UniProt P05177); test: Human liver microsome CYP inhibition (direct and time-dependent); format: in vitro ADME
T1 construct: In vitro human liver microsome tests; from tissue; host or cells: human liver microsomes
Description: (§2) The non-dilution method was used to determine the time-dependent inhibitory effect of ILB-2109 on human liver microsomal cytochrome P450 isoenzymes (CYP1A2, CYP2B6, CYP2C8, CYP2C9, CYP2C19, CYP2D6 and CYP3A4). Generally, an IC50 shift multiple ≥1.5 was taken as the judgment standard for time-dependent inhibitors.

CYP3A4 = target: T2, CYP3A4 (Homo sapiens, UniProt P08684); test: as above; format: in vitro ADME; details: for IC50: human liver microsomes
T2 construct: In vitro human liver microsome tests; from tissue; host or cells: human liver microsomes
Description: as §2

CYP2D6 = target: T3, CYP2D6 (Homo sapiens, UniProt P10635); test: as above; format: in vitro ADME
T3 construct: In vitro human liver microsome tests; from tissue; host or cells: human liver microsomes
Description: as §2

CYP2B6 = target: T4, CYP2B6 (Homo sapiens, UniProt P20813); test: as above; format: in vitro ADME
T4 construct: In vitro human liver microsome tests; from tissue; host or cells: human liver microsomes
Description: as §2

CYP2C19 = target: T5, CYP2C19 (Homo sapiens, UniProt P33261); test: as above; format: in vitro ADME
T5 construct: In vitro human liver microsome tests; from tissue; host or cells: human liver microsomes
Description: as §2

CYP2C8 = target: T6, CYP2C8 (Homo sapiens, UniProt P10632); test: as above; format: in vitro ADME
T6 construct: In vitro human liver microsome tests; from tissue; host or cells: human liver microsomes
Description: as §2

CYP2C9 = target: T7, CYP2C9 (Homo sapiens, UniProt P11712); test: as above; format: in vitro ADME
T7 construct: In vitro human liver microsome tests; from tissue; host or cells: human liver microsomes
Description: as §2

A2aR = A2aR (Homo sapiens, UniProt P29274); test: Antagonism of A2aR activity at the cellular level; format: cell-based
Description: Meanwhile, ILB-2109 had high selectivity for A2aR (compared with A1, A2b and A3 receptors, the selectivity was 18.9 times, 40.7 times and 3424.7 times respectively).

[3] = 4-week repeated-dose toxicity test in cynomolgus monkeys; format: in vivo
Description: as §1
40 cynomolgus monkeys (half male and half female) were randomly divided into 4 groups with 5 animals per gender in each group, and given intragastric administration of 0 (vehicle), 20, 60 and 200 mg/kg/day ILB-2109 once a day for 28 consecutive days. […] Combined with gross observation and histopathological examination results, the cause of animal death was considered to be related to lung injury. […] All the above changes completely recovered during the recovery period. In addition, no drug-related changes were found in body temperature, respiration, electrocardiogram, ophthalmic examination and bone marrow. There was no gender difference in systemic exposure in each dose group; no obvious accumulation; the increase ratio of systemic exposure was lower than the increase ratio of dose.
Attention should be paid to the potential impact of ILB-2109 on respiratory system, blood system, endocrine system and other systems in clinical use.

[4] = SD rat absorption test (pharmacokinetics); format: in vivo, SD rats; details: for bioavailability / AUC(0-t) / half-life / clearance / Vd / Cmax: Sprague-Dawley, rat, plasma; for bioavailability: oral 12 mg/kg; for half-life: read-out: elimination half-life (T1/2) (converted); for clearance: read-out: plasma clearance rate (CL); for Vd: read-out: steady-state apparent volume of distribution (Vdss); for Cmax: read-out: peak concentrations (Cmax); for ratio of AUC0-last on Day 7 to Day 1 / ratio of Cmax on Day 7 to Day 1: continuous oral 40 mg/kg for 7 days
Description: According to the Technical Guidelines for Non-clinical Pharmacokinetic Studies of Drugs and the results of in vitro metabolic species difference studies, liquid chromatography-tandem mass spectrometry (LC-MS/MS) was used in this pharmacokinetic study to fully verify the analytical method for the determination of ILB-2109 content in plasma (EDTA-K2 anticoagulation) of Sprague-Dawley rats and cynomolgus monkeys. The linear range of the method was 20.0~20000 nM. The precision, accuracy and other indicators of the method were confirmed to comply with the relevant regulations of biological sample detection.
This experiment studied the pharmacokinetic properties of ILB-2109 in female and male SD rats, including 1) 2 mg/kg single intravenous injection administration study; 2) 12, 40 and 120 mg/kg oral dose escalation study; 3) 40 mg/kg repeated oral administration BID for 7 consecutive days.

[5] = BDC rats, 0-72 hours after single oral administration
[6] = non-dilution method, IC50 shift multiple ≥1.5 as judgment standard
[7] = female, cynomolgus monkey, in vivo, 20 mg/kg
[8] = female, cynomolgus monkey, in vivo, 60 mg/kg
[9] = male, cynomolgus monkey, in vivo, 20 mg/kg
[10] = male, cynomolgus monkey, in vivo, 60 mg/kg
[11] = female SD rats, single intravenous injection 2 mg/kg
[12] = female SD rats, single oral 12 mg/kg
[13] = female SD rats, single oral 40 mg/kg
[14] = female SD rats, single oral 120 mg/kg
[15] = male SD rats, single intravenous injection 2 mg/kg
[16] = male SD rats, single oral 12 mg/kg
[17] = male SD rats, single oral 40 mg/kg
[18] = male SD rats, single oral 120 mg/kg

T2 sequence (P08684 2-503): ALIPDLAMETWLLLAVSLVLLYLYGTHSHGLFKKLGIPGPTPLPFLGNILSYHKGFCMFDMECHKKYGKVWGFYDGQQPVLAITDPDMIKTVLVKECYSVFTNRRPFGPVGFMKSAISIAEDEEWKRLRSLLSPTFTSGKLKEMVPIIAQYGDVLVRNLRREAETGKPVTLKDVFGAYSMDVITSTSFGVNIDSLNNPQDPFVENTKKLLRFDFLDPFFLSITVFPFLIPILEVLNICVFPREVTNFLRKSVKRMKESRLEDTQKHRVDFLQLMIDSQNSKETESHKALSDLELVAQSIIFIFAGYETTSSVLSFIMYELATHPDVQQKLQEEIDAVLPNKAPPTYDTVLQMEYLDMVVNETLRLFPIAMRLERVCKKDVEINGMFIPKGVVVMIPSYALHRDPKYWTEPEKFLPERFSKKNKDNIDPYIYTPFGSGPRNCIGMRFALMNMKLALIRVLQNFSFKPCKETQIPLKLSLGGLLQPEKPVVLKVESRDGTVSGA
T3 sequence (P10635 whole entry): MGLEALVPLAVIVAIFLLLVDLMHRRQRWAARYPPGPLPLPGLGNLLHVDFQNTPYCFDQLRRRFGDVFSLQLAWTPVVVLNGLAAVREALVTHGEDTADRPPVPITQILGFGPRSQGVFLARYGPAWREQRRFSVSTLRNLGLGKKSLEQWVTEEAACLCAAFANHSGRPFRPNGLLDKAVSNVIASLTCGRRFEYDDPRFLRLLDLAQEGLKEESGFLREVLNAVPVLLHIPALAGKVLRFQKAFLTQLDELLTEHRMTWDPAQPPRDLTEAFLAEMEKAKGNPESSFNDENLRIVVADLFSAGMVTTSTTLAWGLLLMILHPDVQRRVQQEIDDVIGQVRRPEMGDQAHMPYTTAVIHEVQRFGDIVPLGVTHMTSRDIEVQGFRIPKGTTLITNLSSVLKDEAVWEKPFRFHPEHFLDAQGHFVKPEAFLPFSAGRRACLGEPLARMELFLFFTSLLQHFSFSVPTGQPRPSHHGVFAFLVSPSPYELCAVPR
T6 sequence (P10632 whole entry): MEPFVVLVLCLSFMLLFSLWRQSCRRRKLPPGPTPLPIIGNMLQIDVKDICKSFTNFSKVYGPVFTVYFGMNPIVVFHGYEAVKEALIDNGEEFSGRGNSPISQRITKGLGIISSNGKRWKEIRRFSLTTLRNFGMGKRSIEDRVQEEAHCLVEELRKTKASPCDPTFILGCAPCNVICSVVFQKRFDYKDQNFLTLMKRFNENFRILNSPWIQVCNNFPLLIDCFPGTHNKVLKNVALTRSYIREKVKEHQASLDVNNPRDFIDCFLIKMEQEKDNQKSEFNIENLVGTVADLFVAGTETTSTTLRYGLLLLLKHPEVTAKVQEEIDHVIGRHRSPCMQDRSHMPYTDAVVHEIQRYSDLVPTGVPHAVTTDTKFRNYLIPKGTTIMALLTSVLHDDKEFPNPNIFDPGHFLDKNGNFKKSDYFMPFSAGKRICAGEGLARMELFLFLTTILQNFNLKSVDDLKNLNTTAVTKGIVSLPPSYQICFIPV
T5 sequence (P33261 whole entry): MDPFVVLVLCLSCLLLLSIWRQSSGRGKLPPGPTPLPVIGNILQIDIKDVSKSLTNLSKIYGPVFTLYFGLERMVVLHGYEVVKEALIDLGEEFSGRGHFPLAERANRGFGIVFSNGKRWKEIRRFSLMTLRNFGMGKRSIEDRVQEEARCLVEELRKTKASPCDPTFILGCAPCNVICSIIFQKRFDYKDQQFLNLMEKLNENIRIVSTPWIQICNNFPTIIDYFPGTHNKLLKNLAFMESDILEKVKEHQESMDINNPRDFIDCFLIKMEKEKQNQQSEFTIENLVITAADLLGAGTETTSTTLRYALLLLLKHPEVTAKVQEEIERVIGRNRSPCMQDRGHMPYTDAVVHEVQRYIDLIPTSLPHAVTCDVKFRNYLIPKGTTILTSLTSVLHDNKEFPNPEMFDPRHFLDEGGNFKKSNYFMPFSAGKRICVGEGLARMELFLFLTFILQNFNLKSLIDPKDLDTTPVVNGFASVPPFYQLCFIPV
T1 sequence (P05177 whole entry): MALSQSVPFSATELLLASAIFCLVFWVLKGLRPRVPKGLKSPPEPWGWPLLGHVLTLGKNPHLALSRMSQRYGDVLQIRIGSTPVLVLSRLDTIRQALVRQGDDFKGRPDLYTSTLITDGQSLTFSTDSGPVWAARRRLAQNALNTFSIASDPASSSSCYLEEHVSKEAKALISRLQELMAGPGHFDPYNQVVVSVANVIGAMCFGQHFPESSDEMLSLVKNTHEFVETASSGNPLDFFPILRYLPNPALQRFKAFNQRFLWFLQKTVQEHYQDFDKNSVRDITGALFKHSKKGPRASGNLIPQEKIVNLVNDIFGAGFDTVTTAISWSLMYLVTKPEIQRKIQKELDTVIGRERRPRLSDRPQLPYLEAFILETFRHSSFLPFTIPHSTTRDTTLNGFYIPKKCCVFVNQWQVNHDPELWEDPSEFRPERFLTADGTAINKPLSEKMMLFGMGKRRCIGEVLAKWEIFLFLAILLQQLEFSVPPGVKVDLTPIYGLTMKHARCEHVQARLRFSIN
T7 sequence (P11712 whole entry): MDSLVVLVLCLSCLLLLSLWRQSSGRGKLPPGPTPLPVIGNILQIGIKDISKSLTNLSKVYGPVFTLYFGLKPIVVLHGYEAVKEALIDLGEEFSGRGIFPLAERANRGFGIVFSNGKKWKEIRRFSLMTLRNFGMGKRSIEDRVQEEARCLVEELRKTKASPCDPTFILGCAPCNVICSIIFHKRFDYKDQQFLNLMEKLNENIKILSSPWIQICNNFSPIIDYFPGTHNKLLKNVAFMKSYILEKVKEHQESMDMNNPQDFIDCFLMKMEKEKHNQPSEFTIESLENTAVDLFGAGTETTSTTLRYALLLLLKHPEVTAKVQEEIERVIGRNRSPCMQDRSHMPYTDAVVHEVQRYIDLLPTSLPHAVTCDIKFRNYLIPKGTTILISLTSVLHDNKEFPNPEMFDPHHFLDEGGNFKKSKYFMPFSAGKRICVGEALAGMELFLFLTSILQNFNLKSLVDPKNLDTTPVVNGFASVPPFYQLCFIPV
Chain of A2aR (P29274 whole entry): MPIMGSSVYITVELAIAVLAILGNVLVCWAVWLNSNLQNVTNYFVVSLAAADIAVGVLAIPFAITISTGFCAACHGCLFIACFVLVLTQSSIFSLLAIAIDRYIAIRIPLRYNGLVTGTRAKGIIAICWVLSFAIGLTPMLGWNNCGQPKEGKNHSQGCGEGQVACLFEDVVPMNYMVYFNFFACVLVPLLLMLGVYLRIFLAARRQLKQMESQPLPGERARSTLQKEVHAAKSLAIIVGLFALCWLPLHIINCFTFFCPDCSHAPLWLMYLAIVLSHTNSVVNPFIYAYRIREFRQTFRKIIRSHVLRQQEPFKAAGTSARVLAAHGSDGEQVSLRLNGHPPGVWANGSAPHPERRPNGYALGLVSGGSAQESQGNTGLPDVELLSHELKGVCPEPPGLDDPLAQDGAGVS
T4 sequence (P20813 whole entry): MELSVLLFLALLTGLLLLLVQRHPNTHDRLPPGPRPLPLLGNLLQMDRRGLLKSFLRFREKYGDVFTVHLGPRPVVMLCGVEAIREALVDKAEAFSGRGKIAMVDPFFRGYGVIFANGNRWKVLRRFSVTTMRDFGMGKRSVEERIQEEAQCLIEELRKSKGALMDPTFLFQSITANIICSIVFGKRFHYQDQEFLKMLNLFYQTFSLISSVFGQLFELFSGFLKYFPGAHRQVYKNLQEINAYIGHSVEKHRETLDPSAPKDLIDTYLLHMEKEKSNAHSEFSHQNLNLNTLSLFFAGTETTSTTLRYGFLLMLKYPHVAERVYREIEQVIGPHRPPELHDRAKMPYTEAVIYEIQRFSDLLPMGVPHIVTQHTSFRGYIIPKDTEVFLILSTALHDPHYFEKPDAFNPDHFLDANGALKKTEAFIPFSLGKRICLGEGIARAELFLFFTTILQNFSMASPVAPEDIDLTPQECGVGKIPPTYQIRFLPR

In the case of `Cc1cc(-c2c(-c3ccccc3)nc(N)n3nc(CO)nc23)cc(C(F)(F)F)n1` [ILB-2109], the MTD at 14 days [1] is reported as 2000 mg/kg, the “average of total radioactivity recovery” value [2, 5] is reported as 93.63% and the “cage washing and cleaning fluid, share of the administered dose” value [2, 5] is reported as 0.85%. The “feces, share of the administered dose” value [2, 5] was 14.45%, the “total biliary excretion, share of the administered dose” value [2, 5] was 66.17% and the “urine, share of the administered dose” value [2, 5] was 12.16%. The oral absorption rate ([2]; from total radioactive excretion of bile and urine in BDC rats) was “at least 78.33%”, the IC50 (CYP1A2; human liver microsomes) was greater than 100 µM and the time-dependent inhibitory effect (CYP1A2; [6]) was “no time-dependent inhibitory effect”. The IC50 (CYP3A4; midazolam as substrate) was greater than 100 µM, the IC50 (CYP3A4; testosterone as substrate) was greater than 100 µM and the time-dependent inhibitory effect (CYP3A4; [6]) was “no time-dependent inhibitory effect”. For the same compound, the IC50 (CYP2D6; human liver microsomes) was greater than 100 µM, the time-dependent inhibitory effect (CYP2D6; [6]) was “no time-dependent inhibitory effect” and the IC50 (CYP2B6; human liver microsomes) was greater than 100 µM. For the same compound, the time-dependent inhibitory effect (CYP2B6; [6]) was “no time-dependent inhibitory effect”, the IC50 (CYP2C19; human liver microsomes) was 91.6 µM and the time-dependent inhibitory effect (CYP2C19; [6]) was “no time-dependent inhibitory effect”. The IC50 (CYP2C8; human liver microsomes) was 33.9 µM, the time-dependent inhibitory effect (CYP2C8; [6]) was “no time-dependent inhibitory effect” and the IC50 (CYP2C9; human liver microsomes) was 57.2 µM. For the same compound, the time-dependent inhibitory effect (CYP2C9; [6]) was “no time-dependent inhibitory effect”, the IC50 (A2aR; antagonism of A2aR activity) was 0.00043 µM and the IC50 (A2aR; tumor physiological equivalent conditions (NECA 5 µM)) was 0.00108 µM. The NOAEL at 28 days ([3]; both sexes, cynomolgus monkey, in vivo, po) was 20 mg/kg, the mortality ([3]; cynomolgus monkeys, high-dose group 200 mg/kg/day, death considered related to lung injury) was 1 male animal in the high-dose group was found dying 2 h after administration on D3 and the HNSTD ([3]; cynomolgus monkeys, intragastric once a day, 28 consecutive days) was 60 mg/kg. For the same compound, the AUC(0-t) [3, 7] was 61 µg·h/mL, the Cmax [3, 7] was 5010 ng/mL and the AUC(0-t) [3, 8] was 149 µg·h/mL. The Cmax [3, 8] was 11900 ng/mL, the AUC(0-t) [3, 9] was 80.2 µg·h/mL and the Cmax [3, 9] was 6580 ng/mL. For the same compound, the AUC(0-t) [3, 10] was 206 µg·h/mL, the Cmax [3, 10] was 14300 ng/mL and the “tolerability in the PK study” value ([4]; SD rats, all dose regimens of the absorption test) was “tolerated the compound well without any abnormal manifestations”. It also gave a bioavailability ([4]; female SD rats) of 67.8%, an AUC(0-t) [4, 11] of 60.3 ± 5.18 µM·h and a half-life [4, 11] of 5.71 ± 1.25 h. For the same compound, the clearance [4, 11] was 1.33 ± 0.135 mL/min/kg, the Vd [4, 11] was 0.526 ± 0.0558 L/kg and the AUC(0-t) [4, 12] was 247 ± 22.1 µM·h. For the same compound, the Cmax [4, 12] was 33.7 ± 2.8 µM, the AUC(0-t) [4, 13] was 915 ± 169 µM·h and the Cmax [4, 13] was 124 ± 17.5 µM. It also gave an AUC(0-t) [4, 14] of 1560 ± 205 µM·h, a Cmax [4, 14] of 155 ± 24.3 µM and a bioavailability ([4]; male SD rats) of 73%. The AUC(0-t) [4, 15] was 13.3 ± 2.26 µM·h, the half-life [4, 15] was 1.26 ± 0.361 h and the clearance [4, 15] was 6.3 ± 1.04 mL/min/kg. For the same compound, the Vd [4, 15] was 0.681 ± 0.0975 L/kg, the AUC(0-t) [4, 16] was 58.9 ± 19.2 µM·h and the Cmax [4, 16] was 23.8 ± 2.23 µM. The AUC(0-t) [4, 17] was 296 ± 54.1 µM·h, the Cmax [4, 17] was 63.3 ± 1.65 µM and the AUC(0-t) [4, 18] was 792 ± 167 µM·h. The Cmax [4, 18] was 118 ± 19.8 µM, the peak time [4, 12] was 2.33 ± 1.53 h and the peak time [4, 13] was 3.33 ± 1.15 h. For the same compound, the peak time [4, 14] was 2.67 ± 1.15 h, the “dose proportionality of systemic exposure (AUC0-last) and Cmax” value ([4]; female and male rats, oral dose range 12 to 40 mg/kg) was “increased basically proportionally to the dose” and the “ratio of AUC0-last on Day 7 to Day 1” value ([4]; female rats) was 0.669. For the same compound, the “ratio of Cmax on Day 7 to Day 1” value ([4]; female rats) was 0.899, the peak time [4, 16] was 0.667 ± 0.289 h and the peak time [4, 17] was 1.33 ± 0.577 h. For the same compound, the peak time [4, 18] was 2.67 ± 1.15 h, the “ratio of AUC0-last on Day 7 to Day 1” value ([4]; male rats) was 0.584 and the “ratio of Cmax on Day 7 to Day 1” value ([4]; male rats) was 0.673. The “ratio of AUC0-last between female and male rats” value ([4]; oral single dose 12 mg/kg) was 4.19, the “ratio of AUC0-last between female and male rats” value ([4]; oral single dose 40 mg/kg) was 3.09 and the “ratio of AUC0-last between female and male rats” value ([4]; oral single dose 120 mg/kg) was 1.97.
